Reference: patent US20260248879A1, “METHODS OF USING A GCG/GLP1 CO-AGONIST FOR THERAPY” (ELI LILLY AND COMPANY, priority 2022, published 2026)

Test system: patients with T2DM
Assay: Example 1 study: gastric emptying (acetaminophen PK)
Type: in vivo, human
Description: Acetaminophen is a well-established marker for the rate and extent of gastric emptying. It is rapidly absorbed from the duodenum upon release from the stomach. A delay in gastric emptying is reflected in the alterations to the concentration-time profile of acetaminophen, specifically, decreasing its Cmax and increasing time of maximum observed drug concentration (tmax) without altering the extent (total drug amount) absorbed. An oral solution dose of approximately 1 g acetaminophen is considered to be sufficient for bioanalytical detection and is administered as indicated below in respect of Cohorts 1 and 2. […] Concentrations of acetaminophen are assayed using a validated LC/MS method. Bioanalytical samples collected to measure acetaminophen concentrations are retained for a maximum of 2 years following last patient visit for the study.
In respect of Cohort 1, gastric emptying is assessed at baseline and Days 2 and 79.
In respect of Cohort 2, gastric emptying is assessed at baseline and Days 2 and 107.
The PK parameters of acetaminophen were compared between treatment groups to determine the rate and extent of gastric emptying. Prior to dosing with Compound 1, the PK profiles of acetaminophen on Day −1 were similar between the treatment groups. Within treatment groups, the Cmax of acetaminophen decreased from Day −1 during 12 weeks of multiple dosing with Compound 1. The Cmax of acetaminophen was lowest on Day 2 in both treatment groups. However, the change from baseline Cmax of acetaminophen increased at Day 107.

CC(C)C[C@H](NC(=O)[C@H](CC(C)C)NC(=O)[C@H](Cc1c[nH]c2ccccc12)NC(=O)[C@H](CCC(=O)O)NC(=O)[C@@H](NC(=O)[C@H](Cc1ccccc1)NC(=O)[C@H](CCC(=O)O)NC(=O)[C@H](CCCCNC(=O)COCCOCCNC(=O)COCCOCCNC(=O)CC[C@H](NC(=O)CCCCCCCCCCCCCCCCCCC(=O)O)C(=O)O)NC(=O)[C@H](C)NC(=O)[C@H](CCCCN)NC(=O)[C@H](CCCCN)NC(=O)[C@H](CCC(=O)O)NC(=O)[C@H](CC(=O)O)NC(=O)[C@H](CC(C)C)NC(=O)[C@H](Cc1ccc(O)cc1)NC(=O)[C@H](CCCCN)NC(=O)[C@H](CO)NC(=O)[C@H](Cc1ccc(O)cc1)NC(=O)[C@H](CC(=O)O)NC(=O)[C@H](CO)NC(=O)[C@@H](NC(=O)[C@H](Cc1ccccc1)NC(=O)[C@@H](NC(=O)CNC(=O)[C@H](CCC(N)=O)NC(=O)C(C)(C)NC(=O)[C@@H](N)Cc1c[nH]cn1)[C@@H](C)O)[C@@H](C)O)C(C)C)C(=O)N[C@@H](CCC(=O)O)C(=O)NCC(=O)NCC(=O)N1CCC[C@H]1C(=O)N[C@@H](CO)C(=O)N[C@@H](CO)C(=O)NCC(N)=O [Compound 1]
acetaminophen Cmax, Change From Baseline (Est % change) (Cohort 1, Day 2): (0.83) % | acetaminophen tmax, Change From Baseline (Est % change) (Cohort 1, Day 2): (1.06) % | acetaminophen tmax (Cohort 1, Day 2, Day −1 2.671): 1.963 h | acetaminophen Cmax, Change From Baseline (Est % change) (Cohort 1, Day 79): (0.9) % | acetaminophen tmax (Cohort 1, Day 79): 1.478 h | acetaminophen tmax, Change From Baseline (Est % change) (Cohort 1, Day 79): (0.8) % | acetaminophen Cmax, Change From Baseline (Est % change) (Cohort 2, Day 2): (0.79) % | acetaminophen tmax, Change From Baseline (Est % change) (Cohort 2, Day 2): (0.89) % | acetaminophen tmax, Change From Baseline, Mean (Cohort 2, Day 2): 11.2 min | acetaminophen tmax (Cohort 2, Day 2, Day −1 1.214): 1.423 h | acetaminophen Cmax, Change From Baseline (Est % change) (Cohort 2, Day 107): (1.18) % | acetaminophen tmax (Cohort 2, Day 107): 0.909 h | acetaminophen tmax, Change From Baseline (Est % change) (Cohort 2, Day 107): (0.89) % | acetaminophen tmax, Change From Baseline, Mean (Cohort 2, Day 107): 45 min
